The results in this text go back to publication PMC3914206.

Format in all cases: binding
The target in experiment [1] is T1, panel of 442 kinases (Homo sapiens, UniProt Q8TDR2).
T1 construct: purchased KINOMEscan
The following applies: kinase STK35; compound concentration 10 µM. An excerpt:
(§1) We assessed the selectivity of members of this scaffold using the KINOMEscan methodology across a near comprehensive panel of 442 kinases [[18,27]].

Experiment [2] concerns the target T2, panel of 442 kinases (Homo sapiens, UniProt P42336, E545K).
T2 construct: purchased KINOMEscan
The following applies: Compound Concentration 10 µM.
Excerpt: as §1

The target of experiment [3] is T3, panel of 442 kinases (Homo sapiens, UniProt O94806).
T3 construct: purchased KINOMEscan
T3 sequence (O94806 1-890): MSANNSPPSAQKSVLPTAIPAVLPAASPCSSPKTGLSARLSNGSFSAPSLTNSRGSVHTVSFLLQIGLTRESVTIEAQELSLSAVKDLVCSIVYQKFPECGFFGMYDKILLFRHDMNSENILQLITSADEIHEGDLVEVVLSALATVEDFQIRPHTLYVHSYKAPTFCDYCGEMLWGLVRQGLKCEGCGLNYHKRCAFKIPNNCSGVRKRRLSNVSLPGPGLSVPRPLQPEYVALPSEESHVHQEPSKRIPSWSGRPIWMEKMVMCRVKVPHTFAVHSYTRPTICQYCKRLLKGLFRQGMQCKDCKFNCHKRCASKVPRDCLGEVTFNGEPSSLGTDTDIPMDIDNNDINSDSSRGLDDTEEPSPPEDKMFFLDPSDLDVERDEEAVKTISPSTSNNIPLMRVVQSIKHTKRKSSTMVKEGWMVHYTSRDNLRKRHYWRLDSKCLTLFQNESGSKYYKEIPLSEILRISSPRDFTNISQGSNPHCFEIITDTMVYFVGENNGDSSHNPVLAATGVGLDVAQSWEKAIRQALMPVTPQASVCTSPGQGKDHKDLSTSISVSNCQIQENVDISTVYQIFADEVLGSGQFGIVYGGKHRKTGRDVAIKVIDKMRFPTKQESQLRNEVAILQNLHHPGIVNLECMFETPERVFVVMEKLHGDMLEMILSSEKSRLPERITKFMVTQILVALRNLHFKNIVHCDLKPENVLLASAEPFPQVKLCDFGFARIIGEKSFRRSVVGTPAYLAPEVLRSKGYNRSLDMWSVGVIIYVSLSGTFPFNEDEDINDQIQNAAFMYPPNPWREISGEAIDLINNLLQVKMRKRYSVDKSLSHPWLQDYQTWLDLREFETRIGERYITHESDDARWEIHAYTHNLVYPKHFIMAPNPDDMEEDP
The following applies: Compound Concentration 10 µM.
Excerpt: as §1

T1 sequence (Q8TDR2 whole entry): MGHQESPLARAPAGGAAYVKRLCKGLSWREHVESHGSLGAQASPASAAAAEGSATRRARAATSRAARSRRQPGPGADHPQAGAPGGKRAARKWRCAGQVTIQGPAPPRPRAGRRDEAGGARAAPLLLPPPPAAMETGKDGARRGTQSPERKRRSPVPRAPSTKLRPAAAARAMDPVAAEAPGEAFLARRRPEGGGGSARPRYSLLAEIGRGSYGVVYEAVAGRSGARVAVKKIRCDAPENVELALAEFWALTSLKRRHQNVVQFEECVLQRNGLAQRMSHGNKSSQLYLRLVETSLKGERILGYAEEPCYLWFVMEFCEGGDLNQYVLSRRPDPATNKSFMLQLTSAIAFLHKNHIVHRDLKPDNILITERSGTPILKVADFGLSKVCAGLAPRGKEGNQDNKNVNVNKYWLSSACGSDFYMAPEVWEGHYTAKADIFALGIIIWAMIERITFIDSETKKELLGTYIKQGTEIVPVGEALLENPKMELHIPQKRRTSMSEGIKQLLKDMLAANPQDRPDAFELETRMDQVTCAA
T2 sequence (P42336 whole entry E545K): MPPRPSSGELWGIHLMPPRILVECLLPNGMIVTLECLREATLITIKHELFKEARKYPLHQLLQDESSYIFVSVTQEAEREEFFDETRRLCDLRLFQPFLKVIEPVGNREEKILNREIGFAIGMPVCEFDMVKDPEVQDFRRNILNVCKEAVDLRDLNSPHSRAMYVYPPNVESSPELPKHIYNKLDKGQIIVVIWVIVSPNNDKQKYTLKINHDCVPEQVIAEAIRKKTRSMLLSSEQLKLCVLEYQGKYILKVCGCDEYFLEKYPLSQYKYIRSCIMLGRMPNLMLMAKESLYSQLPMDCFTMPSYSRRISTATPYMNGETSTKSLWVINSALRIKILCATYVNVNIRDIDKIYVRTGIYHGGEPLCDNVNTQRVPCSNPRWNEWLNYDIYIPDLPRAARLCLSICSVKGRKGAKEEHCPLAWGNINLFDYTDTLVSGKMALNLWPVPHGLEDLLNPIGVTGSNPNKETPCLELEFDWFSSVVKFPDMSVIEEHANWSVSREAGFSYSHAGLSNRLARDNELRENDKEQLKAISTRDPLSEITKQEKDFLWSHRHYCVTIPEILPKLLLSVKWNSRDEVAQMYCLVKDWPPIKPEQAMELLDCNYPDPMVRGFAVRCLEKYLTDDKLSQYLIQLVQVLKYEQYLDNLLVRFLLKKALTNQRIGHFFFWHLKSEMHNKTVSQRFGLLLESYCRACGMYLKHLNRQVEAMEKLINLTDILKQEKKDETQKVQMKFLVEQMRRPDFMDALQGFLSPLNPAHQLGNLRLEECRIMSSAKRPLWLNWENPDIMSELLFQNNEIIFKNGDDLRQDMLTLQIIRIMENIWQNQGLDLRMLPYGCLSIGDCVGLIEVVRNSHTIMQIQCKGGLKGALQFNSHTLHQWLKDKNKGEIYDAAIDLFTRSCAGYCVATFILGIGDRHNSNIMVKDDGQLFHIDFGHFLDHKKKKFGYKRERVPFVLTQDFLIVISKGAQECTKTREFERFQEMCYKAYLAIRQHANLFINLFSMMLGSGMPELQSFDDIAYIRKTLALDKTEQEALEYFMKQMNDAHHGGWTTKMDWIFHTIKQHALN

On to `CCOc1cc(C(=O)N2CCC(N3CCN(C)CC3)CC2)ccc1Nc1ncc2c(n1)N(C1CCCC1)c1ccccc1C(=O)N2C` [Compound 26], for which the “% Ctrl, STK35” value at panel of 442 kinases [1] came to 96 % Ctrl. Also, the “KINOMEscan: PIK3CA(E545K)” value on panel of 442 kinases [2] is 100. In addition, at panel of 442 kinases [3], the “KINOMEscan: PRKD3” value came to 100.

As for `COc1cc(C(=O)N2CCC(N3CCN(C)CC3)CC2)ccc1Nc1ncc2c(n1)N1CCc3cccc(c31)C(=O)N2C` [Compound 24], at panel of 442 kinases [1], the “% Ctrl, STK35” value is reported as 100 % Ctrl. In addition, the “KINOMEscan: PRKD3” value on panel of 442 kinases [3] turned out to be 19.

On to `COc1cc(C(=O)N2CCC(N3CCN(C)CC3)CC2)ccc1Nc1ncc2c(n1)N(C)c1ccccc1C(=O)N2C` [15 (LRRK2-IN-1)], for which the “% Ctrl, STK35” value at panel of 442 kinases [1] was 100 % Ctrl. Also, at panel of 442 kinases [2], the “KINOMEscan: PIK3CA(E545K)” value was 100. At panel of 442 kinases [3], the “KINOMEscan: PRKD3” value came to 42.

Consider `COc1cc(C(=O)N2CCC(N3CCN(C)CC3)CC2)ccc1Nc1ncc2c(n1)N(C1CCCC1)c1ccccc1C(=O)N2C` [Compound 25, 11-cyclopentyl-2-((2-methoxy-4-(4-(4-methylpiperazin-1-yl)piperidine-1-carbonyl)phenyl)amino)-5-methyl-5H-benzo[e]pyrimido[5,4-b][1,4]diazepin-6(11H)-one], for which the “% Ctrl, STK35” value on panel of 442 kinases [1] is listed as 100 % Ctrl. Also, on panel of 442 kinases [2], the “KINOMEscan: PIK3CA(E545K)” value came to 100. Moreover, at panel of 442 kinases [3], the “KINOMEscan: PRKD3” value was 100.
